From patent publication US4012516A, “Pharmacologically active compositions” (Burroughs Wellcome Co., priority 1975, dated 1977)
Read-outs that look alike come from different tables or passages of the source.

Tested on: human chopped lung tissue
Experiment: Inhibition of histamine release from human chopped lung tissue passively sensitized in vitro with reaginic antibody, challenged with homologous antigen
Format: cell-based
Conditions: for inhibition at 1 µM: Compound (II) 10^-6 M alone; for inhibition at 0.001 µM: Salbutamol 10^-9 M alone; for inhibition at 0.0001 µM: Salbutamol 10^-10 M alone
Excerpt: The release of histamine from lung preparations treated in this way is known to be inhibited by both the stimulants and the compounds of formula (I) when used separately, but it has now been shown that their combined effect is greater than was to be expected from a knowledge of the activity of the individual components, and in particular the inhibition is greater than the sum of the individual responses when the components are used separately at the same concentrations. The compounds of formula (I) are represented by the formula [drawing 1] wherein Z is carbonyl (C=O) or oxygen (--O--), and X is carboxy or a 5-tetrazolyl group, and salts thereof with pharmaceutically acceptable cations. Of especial value are:
The experimental procedure used was that using chopped human lung tissue substantially as described in Br. Med. J. 3, 272 (1968).

[1] = Homo sapiens, Experiment A, Compound (II) none, read-out: Percentage Inhibition of Histamine Release
[2] = Homo sapiens, Experiment B, Compound (II) none, read-out: Percentage Inhibition of Histamine Release

| Compound | Percentage Inhibition of Histamine Release (Experiment A, combination: Compound (II) 10^-6 M + Salbutamol 10^-9 M) [%] | Percentage Inhibition of Histamine Release (Experiment A, combination: Compound (II) 10^-6 M + Salbutamol 10^-10 M) [%] | Percentage Inhibition of Histamine Release (Experiment B, combination: Compound (II) 10^-6 M + Salbutamol 10^-8 M) [%] | Percentage Inhibition of Histamine Release (Experiment B, combination: Compound (II) 10^-6 M + Salbutamol 10^-9 M) [%] | Percentage Inhibition of Histamine Release (Experiment B, combination: Compound (II) 10^-6 M + Salbutamol 10^-10 M) [%] | Percentage Inhibition of Histamine Release (Experiment B, combination: Compound (II) 10^-7 M + Salbutamol 10^-8 M) [%] | Percentage Inhibition of Histamine Release (Experiment B, combination: Compound (II) 10^-7 M + Salbutamol 10^-9 M) [%] | Percentage Inhibition of Histamine Release (Experiment B, combination: Compound (II) 10^-7 M + Salbutamol 10^-10 M) [%] | inhibition at 1 µM (Homo sapiens, Experiment A, Salbutamol none, read-out: Percentage Inhibition of Histamine Release) [%] | inhibition at 1 µM (Homo sapiens, Experiment B, Salbutamol none, read-out: Percentage Inhibition of Histamine Release) [%] | inhibition at 0.1 µM (Homo sapiens, Experiment B, Compound (II) 10^-7 M alone, Salbutamol none, read-out: Percentage Inhibition of Histamine Release) [%] | anti-allergic effect in combination with bronchodilator stimulants (combined with bronchodilators acting directly or indirectly by stimulation) | inhibition at 0.001 µM [1] [%] | inhibition at 0.0001 µM [1] [%] | inhibition at 0.01 µM (Homo sapiens, Experiment B, Salbutamol 10^-8 M alone, Compound (II) none, read-out: Percentage Inhibition of Histamine Release) [%] | inhibition at 0.001 µM [2] [%] | inhibition at 0.0001 µM [2] [%] |
| --- | --- | --- | --- | --- | --- | --- | --- | --- | --- | --- | --- | --- | --- | --- | --- | --- | --- |
| O=C1c2ccccc2S(=O)(=O)c2cc(-c3nnn[nH]3)ccc21 [Compound (II), 3-(5-TETRAZOLYL)THIOXANTHONE-10,10-DIOXIDE] | 49 | 58 | 38 | 96 | -11 | 64 | 80.5 | -5 | 15 | -14.5 | -13 | potentiated | – | – | – | – | – |
| CC(C)(C)NCC(O)c1ccc(O)c(CO)c1 (stereo not drawn) [Salbutamol, α'-t-butylaminomethyl-4-hydroxy-m-xylene-α',α^3-diol, reference compound] | – | – | – | – | – | – | – | – | – | – | – | – | 0 | 17 | 27 | 22 | 0.9 |
